Values quoted from earlier work, collected in publication PMC9299415 (Molecular Neurobiology, 2022).

What was measured:
[1] = tested on: α7 nAChR
[2] = tested on: SARS-CoV-2; conditions: rhesus macaque model, ref [18]

CCN1C[C@]2(COC(=O)c3ccccc3N3C(=O)C[C@H](C)C3=O)CC[C@H](OC)[C@@]34[C@@H]5C[C@H]6[C@H](OC)[C@@H]5[C@](O)(C[C@@H]6OC)[C@@](O)([C@@H](OC)[C@H]23)[C@@H]14 [MLA, methyllycaconitine]
agonist/antagonist type at α7 [1]: reversible competitive α7 antagonist

c1cnc2cc3c(cc2n1)[C@@H]1CNC[C@H]3C1 [varenicline]
agonist/antagonist type at α7 [1]: full agonist
infectivity and disease progression [2]: reduces infectivity and disease progression

COc1cc(OC)c(NC(=O)Nc2cc(C)on2)cc1Cl [PNU-120596, N-(5-Chloro-2,4-dimethoxyphenyl)-N’-(5-methyl-3-isoxazolyl)-urea]
channel activation by PNU-120596 by itself [1]: cannot induce channel activation

Oc1ccc2[nH]ccc2c1 [5-HI, 5-hydroxyindole]
potentiation efficacy compared with PNU-120596 [1]: lower efficacy than PNU-120596
recovery of receptors from desensitization [1]: does not produce significant recovery of receptors from desensitization
